What was measured:
[1] = system: hippocampal slices; settings: cited from earlier work
[2] = system: hippocampal slices; assay: Western blot analyses of cultured hippocampal slices exposed to ZPAD; assay type: cell-based, Sprague-Dawley rats; settings: for replication of ZPAD-induced alterations by more selective inhibitors of cathepsin L: cultured brain slices
Experimental: (§1) Hippocampal slices were prepared from 10-13 day-old Sprague-Dawley rats and maintained in culture using the method of Stoppini et al. (1991, supra). Briefly, the hippocampi were dissected in ice-cold artificial cerebrospinal fluid (124 mM NaCl, 10 mM glucose, 3 mM KCl, 1.25 mM KH2PO4, 4 mM MgSO4, 2 mM CaCl2, 26 mM NaHCO3, 2 mM ascorbate, 0.1 mM ascorbate, pH=7.3), and 400 μm thick slices were produced on a McIlwain tissue chopper. One ml of culture media (50% Basal Medium Eagle, 25% Earle's Balance Salt Solution, 25% horse serum), supplemented with 136 mM NaCl, 2 mM CaCl2, 2.5 mM MgSO4, 5 mM NaHCO3 3 mM glutamine, 40 mM glucose, 0.5 mM ascorbic acid, 20 mM HEPES (pH=7.3), 1 mg/L insulin, 5 U/ml penicillin and 5 mg/L streptomycin, was added to each well of a six well culture plate, and inserts containing a polystyrene membrane (pore size: […]) were placed in each well to support the hippocampal sections. Slices were incubated in a humidified, 37° C. atmosphere containing 5% CO2 and maintained in culture for at least nine days before experiments were initiated. Media was replenished on the first day after explantation, and every 2-3 days during the initial culture period. A subset of the hippocampal slices in the six-well culture dishes was exposed to media (as described above, with heat-treated horse serum) containing 30-50 μM ZPAD (BACHEM Bioscience, Inc., Torrance, Calif.). Tissue was harvested after three to six days of continuous ZPAD exposure.

[3] = system: cathepsin D mRNA; assay: In situ hybridization for cathepsin D mRNA in cultured hippocampal slices; assay type: cell-based, Sprague-Dawley rats; settings: four days of exposure to 45 μM ZPAD
Experimental: as §1, with “Tissue was harvested after three to six days of continuous ZPAD exposure.” left out

[4] = system: hippocampal slices; assay: Electron microscopy of cultured hippocampal slices treated with ZPAD; assay type: cell-based, Sprague-Dawley rats
Experimental: as §1
Furthermore, lysosomes in CA1 and CA3 pyramidal cells were not restricted to the soma but instead were located throughout dendritic processes. Clusters of lysosomes were commonly found within bulging segments of proximal dendrites that were notable for an absence of nicrotubules and neurofilaments. […] These appendages are similar in form and content to structures previously referred to as “meganeurites.” While pyknotic nuclei were sometimes encountered, most of the cells in slices exposed to ZPAD for six days appeared relatively normal. […]

[5] = chloroquine treatment of long-term hippocampal slices
[6] = 45 μM ZPAD for six days, electron microscope

For `C=C(C)[C@H]1CN[C@H](C(=O)O)[C@H]1CC(=O)O` [kainic acid], which “rate of build-up of β-amyloid-containing fragments and loss of synaptophysin” value ([1]; pre-treatment with kainic acid before chloroquine) is on record?
Its value is “more rapid”.

Which “replication of ZPAD-induced alterations by more selective inhibitors of cathepsin L” value [2] does the source give for “N-CBZ-L-phenylalanyl-L-phenylalanine-diazomethylketone” here?
The value was “replicated several of the ZPAD-induced alterations”.

For `CCN(CC)CCCC(C)Nc1ccnc2cc(Cl)ccc12` (centres unmarked) [chloroquine], which “carboxy-terminal fragments of the amyloid precursor protein (APP)” value [1, 5] is on record?
The value was “appearance”.

What about the synaptophysin [1, 5] of the same molecule?
Its synaptophysin is “loss”.

For “N-CBZ-L-phenylalanyl-L-alanine-diazomethylketone [ZPAD]”, which “levels of 25-30 kDa fragments of amyloid precursor protein” value ([2]; 45 μM ZPAD for six days, Western blot) is on record?
The value was “increased levels”.

What about the “levels of active cathepsin D protein in lysosomal and non-lysosomal (cytosolic) compartments” value ([2]; Western blots of subcellular fractions of ZPAD-exposed slices) of the same molecule?
Its value is “markedly elevated levels”.

What about the “increase in the protein level of cathepsin D” value ([2]; slices exposed to 30-50 μM ZPAD for three to six days, Western blot, p<0.001, n=8) of the same molecule?
The value was 3 fold.

What about the “degradation of cytoskeletal proteins” value ([2]; slices exposed to 30-50 μM ZPAD for three to six days, Western blot, tubulin, spectrin, microtubule-associated protein-2, tau) of the same molecule?
Its value is “proteolytic degradation of four cytoskeletal proteins”.

And the “increase in the level of cathepsin D mRNA, CA3 neurons” value ([3]; CA3 neurons)?
The value was 56%.

And the “increase in the level of cathepsin D mRNA, glial cells of subfield CA1 stratum radiatum” value ([3]; p<0.01)?
The value was 71%.

What about the “meganeurite formation on CA1 neurons” value [4, 6] of the same molecule?
The value was “a small percentage of CA1 neurons”.

And the “number of lysosomes in the perikarya of neurons and glia” value [4, 6]?
Its value is “dramatic increase”.

What about the “meganeurite-containing CA1 pyramidal cells after washout” value ([4]; ZPAD for six days, then seven additional days in culture without ZPAD) of the same molecule?
Its value is “more commonly found”.

Which “replication of ZPAD-induced alterations by more selective inhibitors of cathepsin L” value [2] does the source give for `CC(C)C[C@H](NC(=O)[C@@H](NC(=O)N[C@@H](Cc1ccccc1)C(=O)O)[C@@H]1CCN=C(N)N1)C(=O)N[C@H](C=O)Cc1ccccc1` [chymostatin] here?
Its value is “replicated several of the ZPAD-induced alterations”.
